Data on 8 compounds can be found in patent US6043357A, “HIV protease inhibitors” (The University of Queensland, priority 1994, dated 2000).

One experiment concerns HIV-1 (strain TC354). Put plainly: Assay for anti-viral activity: HIV-1 (strain TC354) replication in PHA-stimulated cord blood mononuclear cells, reverse transcriptase activity. Type of experiment: cell-based. The settings on record: read-out: effective concentration, inhibition of virus replication. The method, then:
Method: Target cells (PHA-stimulated cord blood mononuclear cells) were washed free of PHA and inoculated with HIV-1 (strain TC354) at a multiplicity of infection of 1, in the presence of 20 μg/ml DEAE-dextran for 30 mins. Cells were washed to remove unbound virus and residual DEAE-dextran. 10^5 cells were added to each well of 96 well plate, solutions of test compounds were added, each tested in triplicate. Dilutions were prepared in RPMI/1640. Tissue culture medium (RPMI/1640 buffer, 10% FCS, 20 U/ml […]) was added to a final volume of 200 μl. Reverse transcriptase activity was assayed four days post inoculation, RT activity >30 cpm was considered positive for HIV-1 replication.

The target in another experiment is HIV-1 protease (Human immunodeficiency virus type 1 group M subtype B, UniProt P03369). The experiment can be described thus: biochemical. The method, then:
HIV-1 protease activity was measured at 37° C. using a continuous fluorimetric assay based on the method of Toth et al., (Toth et al., 1990, Int. J. Pept. Res. 36 544-550). The substrate, 2-aminobenzoyl-threonine-isoleucine-norleucine-(p-nitro)-phenylalanine-glutamine-arginine-NH2 (Abz-NF^* -6), was synthesised by solid phase peptide synthesis (Kent et al., 1991, In: Peptides 1990: Proceedings of the Twenty-First European Peptide Symposium (Girault, E. and Andrew, D. eds.) pp 172-173, ESCOM, Leiden). Enzyme activity was measured as the increase in fluorescence intensity upon substrate hydrolysis. The change in fluorescence intensity was monitored with a Perkin Elmer LS50B luminescence spectrometer fitted with a thermostatted micro cuvette holder. Measurements were carried out using an excitation wavelength of 320 nm (bandwith 5 nm) and an emission wavelength of […] (bandwith 5 nm).
Inhibition assays were routinely carried out at pH 6.5 and μ=0.1 M using a single substrate concentration. The assay mixtures contained 50 μM Abz-NF^* -6 in 100 mM 2-(N-morpholino)ethanesulphonate buffer, containing 10% (v/v) glycerol and 50 μg/ml bovine serum albumin, in a total final volume of 400 μl. Where inhibitors had to be dissolved in dimethyl sulphoxide or other organic solvents, the final concentration of solvent in the control and inhibition assays were kept absolutely constant because of the severe inhibitory effect of some solvents on the enzyme activity (Bergman et al., 1992, 17th Ann. Lorne Conf. on Protein Struct. and Funct. Abstr.). In all assays, the reaction was initiated by the addition of 10 μl of enzyme solution.

A further experiment deals with HIV. The experiment can be described thus: Activity against HIV in cells / cell culture. Type of experiment: cell-based.

“Also recorded” adds a separate entry of the source. Where two headings read alike, the source gives them in different places. Some results are limits rather than exact numbers.

With `CC(C)CCN(C[C@@H](O)[C@@H]1Cc2ccc(cc2)OCCCCC(=O)N[C@@H](C(C)C)C(=O)N1)S(=O)(=O)c1ccccc1` [Compound 68], the EC50 with HIV-1 (strain TC354) (Human immunodeficiency virus 1, 96 h, four days post inoculation) is 100 nM.
For `CC[C@H](C)[C@@H]1NC(=O)[C@@H](NC[C@@H](O)[C@H](Cc2ccccc2)NC(=O)[C@@H](NC(=O)c2ccc3ccccc3n2)C(C)C)Cc2ccc(cc2)OCCCNC1=O` [Compound 93], the “protease inhibition, stated in words” value on HIV-1 protease was “very potent inhibitor of HIV-1 protease; also recorded: equipotent as a protease inhibitor with the DuPont-Merck compound DM323”. Moreover, the half-inhibitory concentration (IC50) at HIV-1 protease (Table 9, R isomer, read-out: IC50) is 1 nM; in the experiment with HIV (Human immunodeficiency virus 1, read-out: IC50, anti-viral activity against HIV in cell culture) it was below 1000 nM. Also, the EC50 in the experiment on HIV-1 (strain TC354) (four days post inoculation) came out at 100000 nM.
`CC(C)(C)NC(=O)[C@@H]1CCCCN1C[C@@H](O)[C@@H]1Cc2ccc(cc2)OCCCC(=O)N[C@@H](CC(N)=O)C(=O)N1` [Compound 44] came in with an IC50 on HIV-1 protease of 16 nM. Besides, the EC50 with HIV-1 (strain TC354) (Human immunodeficiency virus 1, 96 h) was 1000 nM. In the experiment on HIV, the “anti-viral activity, stated in words” value was “poor inhibitor of viral replication in cells”.
For “Ac-Ser-Leu-Asn-Phe-[CHOH--CH2 ]-Pro-Ile-Val-OMe (Ac-SLNFPIV-OMe; also: hydroxyethylene isostere [CHOH-CH2] replaces the Phe-Pro amide bond) [JG-365, reference compound]”, the 50% inhibitory concentration (IC50) with HIV-1 protease (R-isomer of JG-365, pH 6.5, 37° C., read-out: IC50 (Inhibitor Potency)) came to 44 nM; with HIV-1 protease (S-isomer of JG-365, pH 6.5, 37° C., read-out: IC50 (Inhibitor Potency)), 6 nM. The “anti-viral activity, stated in words” value with HIV is “do not have anti-viral activity”. In the experiment on HIV (at 100 μM), the “activity against HIV in cells” value was “inactive”.
On to `CC[C@H](C)[C@H](NC(=O)[C@@H]1CCCN1C[C@@H](O)[C@@H]1Cc2ccc(cc2)OCC(=O)N[C@H](CCC(N)=O)C(=O)N[C@@H](CC(N)=O)C(=O)N1)C(=O)N[C@H](C(N)=O)C(C)C` [Compound 24], for which the IC50 against HIV-1 protease came out at 40 nM.
The compound `CC(C)(C)NC(=O)CN(Cc1ccccc1)C[C@@H](O)[C@@H]1Cc2ccc(cc2)OCCCC(=O)N[C@@H](CC(N)=O)C(=O)N1` [Compound 28] yielded an IC50 against HIV-1 protease of 1500 nM.
Consider `CC[C@H](C)[C@H](NC(=O)[C@@H]1CCCN1C[C@@H](O)[C@@H]1Cc2ccc(cc2)OCCCC(=O)N[C@@H](CC(N)=O)C(=O)N1)C(N)=O` [Compound 4], for which the IC50 at HIV-1 protease (read-out: IC50) turned out to be 9500 nM.
In the case of `CC[C@H](C)[C@H](NC(=O)[C@H](Cc1ccccc1)NC[C@@H](O)[C@@H]1Cc2ccc(cc2)OCCCC(=O)N[C@@H](C(C)C)C(=O)N1)C(=O)N[C@H](C(N)=O)C(C)C` [Compound 46], on HIV-1 protease, the “protease inhibition, stated in words” value is “there was not a great deal of difference”.

What is called IC50 is the concentration that gives 50% inhibition.
